Series [1] deals with cardiac cell line H9C2. Description: Nuclear labeling of cells by fluorescein ODN-peptide conjugate. The format is cell-based. Here is the method:
(§1) For the second ODN, the situation is clearer. This ODN conjugated 3′ with fluorescein and containing an SH group in 5′ for localization reasons has the sequence 5′-[…]-3′ (SEQ ID NO:31) and corresponds to the AS-βCOM antisense sequence complementary to conserved sequence region found in every mRNA encoding β subunit of Ca^2+ channels. After 5 min incubation at 37° C., more than 90% of the cells (cardiac cell line H9C2) were labeled in the nucleus while only 25% of the cells were labeled after 3 hours incubation when using the free ODN.

The test system of series [2] is β subunit of Ca^2+ channels. Description: Ba2+ current density of treated H9C2 cells. The format is cell-based. As to conditions: all labeled cells. Here is the method: as §1
The test system of series [3] is HS-68, NIH 3T3, C2C12, COS-7 and CEM-SS cell lines. Description: Cytotoxicity of MPG and MPG/DNA complex, MTT colorimetric assay. The format is cell-based. Here is the method: In order to generalize the use of MPG as an efficient delivery agent, the degree of cytotoxicity of MPG and of the MPG/DNA complex (charge ratio 5:1) were evaluated in several cell lines, including HS-68 and NIH 3T3 fibroblasts, C212 myoblasts, COS-7 kidney cells and human CEM-SS lymphoblasts. […] At much higher concentrations of 0.1 and 1 mM MPG, however, cell viability decreased by ˜25 and 60%, respectively.
The cytotoxicity of both MPG and MPG/plasmid (pRL-SV40 plasmid encoding reporter R.reniformis luciferase) complexes were investigated in the cell lines mentioned above. Cells grown in 35 mm diameter dishes to 75% confluency (0.5-1×10^6 cells per dish) were incubated with 0.1 μM to 1 mM MPG alone or complexed with DNA in a 5:1 ratio, in 1 ml DMEM for 3 h, after which 10% serum was added. Cell culture medium with MPG or MPG/plasmid was not changed, and cell proliferation was measured over 4 days. Cytotoxicity was evaluated by the MTT colorimetric assay, after removing cell culture medium and replacing it with PBS containing 5 mg/ml of MTT (Mosmann, T. (1983) J. Immunol. Methods, 65: 55-63). Results shown correspond to the averages of four separate experiments.
HS-68, NIH 3T3, C2C12, cos-7 and CEM-SS cell lines were incubated with 0.1 μM to 1 mM MPG alone (A) and with MPG complexed with DNA (pRL-SV40 plasmid encoding R.reniformis luciferase) in a peptide/DNA ratio of 5:1 (B), at 37° C. in DMEM supplemented with 10% FCS. The cytotoxicity of MPG alone and of MPG/DNA complexes was evaluated in MTT colorimetric assays and the results were expressed as percentages of dye reduction in cell lines incubated without MPG. The results correspond to averages of four separate experiments.
Background: Tetrazolium assays rely on reduction of a dye to a coloured formazan, in cell work by metabolically active cells.

For series [4] the following is noted: physiological conditions; cited from earlier work.
Series [5] relates to HS68, NIH 3T3 and 293 cell lines. Put plainly: Toxicity of Pep-2 in cell lines (MTT staining). As to conditions: concentration of 1 mM.
For series [6], the system named is mammalian fibroblasts, NIH 3T3 fibroblasts or murine L1210 lymphocytes. Description: Cellular localization of lucifer yellow-linked peptides. As to conditions: 3 min incubation at 10 μM. The format is cell-based.
A short description of series [7]: Transmembrane ionic channel formation. As to conditions: voltage-triggered insertion. Also on record: species or system Xenopus laevis. The source says:
They were characterized on Xenopus laevis oocyte plasma membranes and confirmed on planar lipid bilayers proving thus that channel formation is a true property of the peptide (FIG. 11). The insertion of the peptide in the membrane is voltage-triggered and the channel thus formed are selective for monovalent cations.

Series [8] has as its system Acheloplasma laidlawii and Spiroplasma melliferum. As to conditions: concentrations much lower than minimal inhibitory concentrations; cited from earlier work.
For series [9] the following is noted: phosphatidylcholine or phosphatidylserine monolayers; cited from earlier work.

Consider four compounds from patent US6841535B2, “Peptide-mediated transfection agents and methods of use” (Active Motif, priority 2000, dated 2005).

*1 amine or outer side, *2 acyl side, *3 side chain or, on linkers, in order; H or OH if unused. Where a SMILES comes first, the peptide text is derived from it. Where no end group is shown, it is not given here. Cysteamide = C(CS[*:3])N[*:1]

Turning to “5′-ACCAGCCTTCCGATCCACCAGTCATT-3′ (DNA, backbone not given here; 3' fluorescein conjugate, 5' thiol group, peptide conjugated) [second ODN]”, in series [1] (ODN conjugated to peptide, 5 min incubation at 37° C.), the “cells labeled in the nucleus” value is reported as “more than 90%”. The same compound displayed a cells labeled in series [1] (free ODN, 3 hours incubation) of 25%. Moreover, in series [2], the “reduction of Ba^2+ current density” value is reported as “≈ 7 fold”.

`CSCC[C@H](NC(=O)[C@@H](NC(=O)[C@H](CO)NC(=O)CNC(=O)[C@H](C)NC(=O)[C@H](C)NC(=O)CNC(=O)[C@H](CC(C)C)NC(=O)[C@H](Cc1ccccc1)NC(=O)CNC(=O)[C@H](CC(C)C)NC(=O)[C@H](Cc1ccccc1)NC(=O)[C@H](CC(C)C)NC(=O)[C@H](C)NC(=O)CNC(C)=O)[C@@H](C)O)C(=O)NCC(=O)N[C@@H](C)C(=O)N[C@@H](Cc1c[nH]c2ccccc12)C(=O)N[C@@H](CO)C(=O)N[C@@H](CCC(N)=O)C(=O)N1CCC[C@H]1C(=O)N[C@@H](CCCCN)C(=O)N[C@@H](CO)C(=O)N[C@@H](CCCCN)C(=O)N[C@@H](CCCNC(=N)N)C(=O)N[C@@H](CCCCN)C(=O)N[C@H](C(=O)NCCS)C(C)C` [MPG] (Ac-GALFLGFLGAAGSTMGAWSQPKSKRKV-Cysteamide): the “decrease of cell viability” value is roughly 25% in series [3] (MPG alone 0.1 mM); roughly 60% in [3] (MPG alone 1 mM); roughly 40% in series [3] (MPG complexed with pRL-SV40 at 5:1 ratio, 1 mM MPG). The cytotoxic effects result in [3] (MPG alone up to 10 μM, 48 h at 37° C.) is “did not induce any cytotoxic effects”. The cytotoxicity entry in series [3] (MPG complexed with pRL-SV40 at 5:1 ratio, 0.1 mM MPG) was “no cytotoxicity could be observed”. Moreover, the solubility result in [4] is given as “highly soluble”.

As for `CC(=O)N[C@@H](Cc1ccc(O)cc1)C(=O)NCC(=O)N[C@@H](Cc1ccccc1)C(=O)N[C@@H](CCCCN)C(=O)N[C@@H](CCCCN)C(=O)N[C@@H](CCCNC(=N)N)C(=O)N[C@@H](CCCNC(=N)N)C(=O)N[C@@H](Cc1c[nH]c2ccccc12)C(=O)N[C@@H](CO)C(=O)N[C@@H](CCC(N)=O)C(=O)N1CCC[C@H]1C(=O)N[C@@H](CCCCN)C(=O)N[C@@H](CCC(=O)O)C(=O)N[C@H](C(=O)N[C@@H](Cc1c[nH]c2ccccc12)C(=O)N[C@@H](CCC(=O)O)C(=O)N[C@H](C(=O)N[C@@H](Cc1c[nH]c2ccccc12)C(=O)N[C@@H](Cc1c[nH]c2ccccc12)C(=O)N[C@H](C(=O)N[C@@H](CCC(=O)O)C(=O)NCCS)[C@@H](C)O)[C@@H](C)O)[C@@H](C)O` [Pep-1-cya] (Ac-YGFKKRRWSQPKETWETWWTE-Cysteamide), the “decrease of cell viability” value in [5] is reported as “about 10%”.

As for “MGLGLHLLVLAAALQGAKKKRKV (Ac-MGLGLHLLVLAAALQGAKKKRKV; not fully specified (C-terminus); printed as MGLGLHLLVLAAALQGAKKKRKV) [[2]]”, in series [6], the “final localization of lucifer yellow-linked peptide” value was “localize in the nuclei of the cells”. Moreover, the channel formation entry in [7] is “induce formation of transmembrane ionic channels”. Moreover, the “effect on membrane potential and transmembrane pH gradient” value in [8] is listed as “decrease”. In addition, in series [9], the surface pressure increase was roughly 15 mN/m.
